Assay results reported in US20120294869A1, “Methods for Treating Fatty Liver Disease” (Nevada Cancer Institute, priority 2011, published 2012).
Read-outs that look alike come from different tables or passages of the source.

Legend:
[1] = system: Primary hepatocytes from UPP-1-TG mice; assay: Intracellular lipid droplet accumulation in primary hepatocytes (CARS); type: cell-based, mouse; conditions: UPP-1-TG primary hepatocytes, 24 hour incubation, 100 μM Urd
Description: (B) is a bar graph representing quantitative analysis of intracellular lipid level in 15 isolated hepatocytes from each group. Intracellular lipid level is defined as the square root of the CARS signal arising from the intracellular lipid droplets of each hepatocyte. Intracellular lipid level is normalized to 1 for WT hepatocytes.
To further confirm our results and to provide a more practical in vitro method, short term cultures of primary liver hepatocytes were generated. WT and UPP-1-TG mouse hepatocytes were isolated using a two-step collagenase perfusion technique initially described by Seglen (Seglen, P.O. (1976) Methods Cell Biol. 13: 29-83). Viability ranged from 80-90% as determined by trypan blue exclusion. Hepatocyte enrichment reached approximately 85-90%. Cells were monitored for albumin expression through 72 hours, with no discernible differences when compared to the initial isolation.

[2] = system: UPP-1-TG mice; assay: CARS imaging of liver lipid accumulation after dietary Urd supplementation; type: in vivo, mouse; conditions: Urd 2 to 5% in dry diet
Description: Images are presented as 3-D stacks. (B) is a bar graph representing quantitative analysis of liver lipid in 18 probed volumes with xyz dimensions of 125×125×25 μm. Three mice per group were used for analysis. Lipid level is defined as the square root of the CARS signal arising from the lipid droplets. Lipid level is normalized to 1 for WT mice. Error bars represent the standard deviations. (C) is a graph depicting Raman spectroscopy analysis of lipid droplet composition.
Using CARS microscopy to image 100-micron thick sections of explanted liver tissues, the effect of the disruption of URD homeostasis on liver lipids was evaluated. As reprinted in FIG. 1, a dramatic difference in liver lipid accumulation among WT, UPP-1-KO and UPP-1-TG mice was observed. […] To confirm the results obtained through CARS microscopy, Oil Red O staining (specific for neutral triglycerides and lipids) of the frozen liver sections was conducted, which yielded similar results to the CARS technology (data not shown).

[3] = system: UPP-1-TG mice; assay: Raman spectroscopy of lipid-chain unsaturation in liver lipid droplets; type: in vivo, mouse; conditions: UPP-1-TG mice fed with Urd
Description: Red and blue arrows point to 1445 cm^−1 and 1660 cm^−1 peaks, respectively. (B) is a graph showing that 11660/11445 is linearly dependent on lipid-chain unsaturation. (C) is a bar graph depicting lipid-chain unsaturation of liver lipid droplets as a function of WT and UPP-1-TG mice. Error bars represent standard deviation across 18 lipid droplets measured.
In control UPP-1-TG mice, the value of 11660/11445, which is a reliable measure of lipid-chain unsaturation (FIG. 4A-B; Rinia, H. A., et al (2008) Biophysical Journal 95: 4908-4914, 2008), was 1.05 (FIG. 4C). In UPP-1-TG mice fed with Urd, the 11660/11445 value of liver lipid droplets was 0.3. The 11660/11445 value of liver lipid droplets was 0.8 for control WT mice.

[4] = Fate of an i.p. tracer dose of [3H]Urd in mouse plasma; type: in vivo; conditions: for half-life: plasma, ip
Description: The UPP-1-KO mouse was created by replacing a 2.5 kb fragment of the UPP-1 gene (including exons 4 and 5) with a 1.6 kb neomycin resistance expression cassette. See, e.g., Cao, D. et al. (2002) Cancer Res. 62: 2313-2317 and Cao, D. et al. (2005) J. Biol. Chem. 280: 21169-21175. […] The absence of UPP-1 phosphorolytic (UPase) activity was confirmed by determining the fate of a tracer dose (25 μCi/mouse) of [^3H]Urd injected intraperitoneally (i.p.) in mice. A very rapid disappearance of [^3H]Urd from the plasma of wild-type (WT) mice was observed, with a t1/2, of approximately […] due to active phosphorolysis.
Enzymatic activity in liver was 10.7±0.3 nmol/hr/mg for the WT animals compared to 252±68 nmol/hr/mg for the transgenic. In WT mice, a tracer dose of [^3H]Urd (25 μCi, i.p.) was rapidly degraded with a t1/2, of approximately 4 minutes. […] Table 1 summarizes the concentrations of URD in WT C57BL/6 mice, the UPP-1-KO and the UPP-1-TG models.

[5] = system: UPP-2; conditions: mouse liver tissue; cited from earlier work

O=c1ccn([C@@H]2O[C@H](CO)[C@@H](O)[C@H]2O)c(=O)[nH]1 [Urd, uridine]
reduction in intracellular lipid droplet accumulation [1]: 10 fold | reduction of liver lipid accumulation [2]: ~15 fold | 11660/11445 value of liver lipid droplets (lipid-chain unsaturation) [3]: 0.3

O=c1ccn([C@@H]2O[C@H](CO)[C@@H](O)[C@H]2O)c(=O)[nH]1 [[^3H]Urd]
half-life ([4]; C57BL/6, mouse, 25 μCi/mouse, wild-type (WT) mice, tracer dose 25 μCi/mouse i.p., read-out: [3H]Urd plasma t1/2): ~4 min | [3H]Urd detectability after administration ([4]; UPP-1-TG (ubiquitous UPP-1 transgenic), mouse, in vivo, 15 minutes): no [^3H]Urd detectable | half-life ([4]; UPP-1-TG (ubiquitous UPP-1 transgenic), mouse, 25 μCi, UPP-1-TG mice, tracer dose 25 μCi i.p., read-out: [3H]Urd t1/2): < 0.5 min | half-life ([4]; mouse, 25 μCi/mouse, UPP-1-KO mice, tracer dose 25 μCi/mouse i.p., read-out: [3H]Urd plasma t1/2): 15 to 18 min

O=S(=O)(c1ccccc1)N(CC(F)(F)F)c1ccc(C(O)(C(F)(F)F)C(F)(F)F)cc1 [T0901317]
effect on UPP-2 expression in mouse liver [5]: potent induction
